Data taken from patent publication US11161815B2, “Hydrocarbylsulfonyl-substituted pyridines and their use in the treatment of cancer” (Oblique Therapeutics AB, priority 2017, dated 2021).

Key:
MDA-MB-468 = assay: Cancer cell viability assay (MTT), MDA-MB-468; type: cell-based; settings: Homo sapiens, 72 hrs, 10% FBS media
Experimental: (§1) Breast cancer and glioblastoma cell lines were plated 4000 cells/well in 96-well plates in the presence of 10% FBS media. The following day cells were treated with various concentrations of the example compounds (0.1% DMSO final) and incubated for 72 hrs. After the incubation An MTT assay was performed to access cell viability. Percent of viability was determined using DMSO vehicle and no cell (blank) controls.

MDA-MB-231 = assay: Cancer cell viability assay (MTT), MDA-MB-231; type: cell-based; settings: Homo sapiens, 72 hrs, 10% FBS media
Experimental: as §1

[1] = target: recombinant thioredoxin reductase 1 (TrxR1) (Homo sapiens (Human), UniProt Q16881); assay: Inhibition of recombinant TrxR1 (DTNB assay); type: biochemical; settings: 30 nM TrxR1, 250 μM NADPH, 15 minutes incubation, read-out: TrxR Assay IC50
Chain of recombinant thioredoxin reductase 1 (TrxR1) (Q16881 151-649): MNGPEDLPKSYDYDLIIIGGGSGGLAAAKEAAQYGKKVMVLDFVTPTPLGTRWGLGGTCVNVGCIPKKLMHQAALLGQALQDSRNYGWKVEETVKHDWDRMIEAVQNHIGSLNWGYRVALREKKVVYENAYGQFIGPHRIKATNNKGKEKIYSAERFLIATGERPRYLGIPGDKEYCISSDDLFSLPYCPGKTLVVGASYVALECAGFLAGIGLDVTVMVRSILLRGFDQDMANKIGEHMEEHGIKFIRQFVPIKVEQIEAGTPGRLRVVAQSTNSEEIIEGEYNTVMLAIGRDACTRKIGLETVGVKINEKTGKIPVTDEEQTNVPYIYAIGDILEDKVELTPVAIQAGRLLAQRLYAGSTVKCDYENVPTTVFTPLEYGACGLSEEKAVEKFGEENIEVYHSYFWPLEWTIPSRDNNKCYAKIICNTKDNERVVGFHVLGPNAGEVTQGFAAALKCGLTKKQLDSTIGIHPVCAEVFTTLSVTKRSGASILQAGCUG
Experimental: (§2) Small molecule inhibition of recombinant thioredoxin reductase 1 (TrxR1) and gluthathione reductase (GR) was examined in 96-well plate format. 30 nM TrxR1 was incubated in the presence of 250 μM NADPH, 0.1 mg/ml BSA, and various concentrations of compound (1% DMSO final) in 50 mM Tris (pH 7.5) and 2 mM EDTA buffer for 15 minutes. Following the incubation period, 2 mM DTNB was added to each well and the change in O.D. at 412 nm was followed. Percent activity was determined using DMSO vehicle and no TrxR1 (blank) controls. 2 nM GR was incubated in the presence of 250 μM NADPH, 0.1 mg/ml BSA, and various concentrations of compounds (1% DMSO final) in 50 mM Tris (pH 7.5) and 2 mM EDTA buffer for 15 minutes. Following the incubation period, 1 mM GSSG was added to each well and the change in O.D. at 340 nm was followed. Percent activity was determined using DMSO vehicle and no GR (blank) controls.

U-87 MG = assay: Cancer cell viability assay (MTT), U-87 MG; type: cell-based; settings: Homo sapiens, 72 hrs, 10% FBS media
Experimental: as §1

[2] = target: gluthathione reductase (GR) (Homo sapiens (Human), UniProt P00390); assay: Inhibition of recombinant GR (GSSG assay); type: biochemical; settings: 2 nM GR, 250 μM NADPH, 15 minutes incubation
Chain of gluthathione reductase (GR) (P00390 44-522): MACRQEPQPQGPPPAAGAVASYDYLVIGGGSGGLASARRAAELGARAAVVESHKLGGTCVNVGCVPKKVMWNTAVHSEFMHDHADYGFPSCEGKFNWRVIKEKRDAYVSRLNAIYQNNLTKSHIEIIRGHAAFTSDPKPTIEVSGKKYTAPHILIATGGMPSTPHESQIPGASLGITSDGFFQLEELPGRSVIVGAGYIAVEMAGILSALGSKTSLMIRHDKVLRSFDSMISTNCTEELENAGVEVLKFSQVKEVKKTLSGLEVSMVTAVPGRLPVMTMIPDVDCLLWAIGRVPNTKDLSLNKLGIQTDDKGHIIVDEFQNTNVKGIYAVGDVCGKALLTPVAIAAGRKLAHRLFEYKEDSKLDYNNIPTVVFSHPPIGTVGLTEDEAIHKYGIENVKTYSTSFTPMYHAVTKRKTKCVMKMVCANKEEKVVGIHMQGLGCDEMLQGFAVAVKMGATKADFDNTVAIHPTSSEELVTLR
Experimental: as §2

MDA-MB-231 cells = assay: Breast cancer cell viability assay (Alamar Blue); type: cell-based; settings: Homo sapiens, 72 hrs, 10% FBS media containing 25 nM selenite
Experimental: MDA-MB-231 cells were plated 2000 cells/well in 96-well black optical plates in the presence of 10% FBS media containing 25 nM selenite. The following day cells were treated with various concentrations of compounds (0.1% DMSO final) and incubated for 72 hrs. After the incubation Alamar Blue reagent was added to each well and incubated for additional 3 hrs. Fluorescence was read ex:530 nm/em:590 nm, and percent of viability was determined using DMSO vehicle and no cell (blank) controls.

| IC50 (MDA-MB-468) [nM] | IC50 (MDA-MB-231) [nM] | IC50 [1] [nM] | IC50 (U-87 MG) [nM] | IC50 [2] [nM] | IC50 (MDA-MB-231 cells) [nM] | Compound |
| --- | --- | --- | --- | --- | --- | --- |
| 4900 | 7100 | 204 | 6000 | > 100000 | – | COc1ccc([N+](=O)[O-])c(S(=O)(=O)C(C)C)n1 [Example 11, 2-(isopropylsulfonyl)-6-methoxy-3-nitropyridine] |
| – | – | 6.78 | – | > 100000 | 4360 | COc1ccc([N+](=O)[O-])c(S(=O)(=O)Cc2ccco2)n1 [Example 29, 2-((furan-2-ylmethyl)sulfonyl)-6-methoxy-3-nitropyridine] |
| – | – | 25.3 | – | > 100000 | 3500 | COc1ccc(CS(=O)(=O)c2nc(OC)ccc2[N+](=O)[O-])cc1 [Example 24, 6-methoxy-2-((4-methoxybenzyl)sulfonyl)-3-nitropyridine] |
| 640 | 1420 | 76.5 | 2480 | – | – | COc1ccc([N+](=O)[O-])c([S+]([O-])Cc2ccccc2)n1 (stereo not drawn) [Example 32, 2-benzylsulfinyl-6-methoxy-3-nitro-pyridine] |
| – | – | 1.03 | – | > 100000 | – | COc1ccc([N+](=O)[O-])c(S(=O)(=O)Cc2ccc(OC(F)(F)F)cc2)n1 [Example 25, 6-methoxy-3-nitro-2-((4-(trifluoromethoxy)benzyl)sulfonyl)pyridine] |
| – | – | 20.3 | – | > 100000 | 5240 | COc1ccc([N+](=O)[O-])c(S(=O)(=O)CCOc2ccccc2)n1 [Example 28, 6-methoxy-3-nitro-2-((2-phenoxyethyl)sulfonyl)pyridine] |
| – | – | 7.6 | – | > 100000 | 1800 | COc1ccc([N+](=O)[O-])c(S(=O)(=O)Cc2ccccc2Cl)n1 [Example 19, 2-((2-chlorobenzyl)sulfonyl)-6-methoxy-3-nitropyridine] |
| – | – | 5.05 | – | > 100000 | 1850 | COc1ccc([N+](=O)[O-])c(S(=O)(=O)Cc2ccc(F)cc2)n1 [Example 22, 2-((4-fluorobenzyl)sulfonyl)-6-methoxy-3-nitropyridine] |
| – | – | 66.9 | – | > 100000 | 2660 | COc1ccc([N+](=O)[O-])c(S(=O)(=O)CCc2cnccn2)n1 [Example 30, 2-(2-((6-methoxy-3-nitropyridin-2-yl)sulfonyl)ethyl)pyrazine] |
| – | – | 14.5 | – | > 100000 | – | COc1ccc([N+](=O)[O-])c(S(=O)(=O)Cc2ccc(C)cc2)n1 [Example 23, 6-methoxy-2-((4-methylbenzyl)sulfonyl)-3-nitropyridine] |
| – | – | 7.33 | – | > 100000 | 7130 | COc1ccc([N+](=O)[O-])c(S(=O)(=O)CCCc2ccccc2)n1 [Example 27, 6-methoxy-3-nitro-2-((3-phenylpropyl)sulfonyl)pyridine] |
| – | – | 7.16 | – | > 100000 | 3200 | COc1ccc([N+](=O)[O-])c(S(=O)(=O)Cc2cccc(Cl)c2)n1 [Example 20, 2-((3-chlorobenzyl)sulfonyl)-6-methoxy-3-nitropyridine] |
| – | – | 12.3 | – | > 100000 | 4510 | CCCCCCCCS(=O)(=O)c1nc(OC)ccc1[N+](=O)[O-] [Example 12, 6-methoxy-3-nitro-2-(octylsulfonyl)pyridine] |
| – | – | 18.8 | – | > 100000 | 5220 | COc1ccc([N+](=O)[O-])c(S(=O)(=O)CCc2ccccc2)n1 [Example 26, 6-methoxy-3-nitro-2-(phenethylsulfonyl)pyridine] |
| – | – | 1.52 | – | > 100000 | – | COc1ccc([N+](=O)[O-])c(S(=O)(=O)CCN2CCCCC2)n1 [Example 18, 6-methoxy-3-nitro-2-((2-(piperidin-1-yl)ethyl)sulfonyl)pyridine] |
| – | – | 4.35 | – | > 100000 | 4100 | COc1ccc([N+](=O)[O-])c(S(=O)(=O)Cc2ccc(Cl)cc2)n1 [Example 21, 2-((4-chlorobenzyl)sulfonyl)-6-methoxy-3-nitropyridine] |
